Where “and” joins values, the source holds several entries; their conditions need not be identical. Identical values can stand only once. Inconclusive results and toxic doses are left out. Square brackets hold non-standard residues; d marks the D form. Peptide text beside a SMILES is read from it. ξ: configuration not given here. ξF = NC(Cc1ccccc1)C(=O)O
System: L1210 leukemia ip in BDF1 mice, survival T/C
Test: NCI In Vivo Anticancer Drug Screen. Data for tumor model L1210 Leukemia (intraperitoneal) in B6D2F1 (BDF1) mice
Details: endpoint: mean survival time, higher = longer survival
How it was run: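 Each compound was tested against a transplantable tumor grown in mice. The endpoint was survival, with treated animals benchmarked against vehicle controls as a simple ratio.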

[1] = dose: 25.0 mg/kg/injection, schedule: Q01DX009 (ip), vehicle: saline
[2] = dose: 100.0 mg/kg/injection, schedule: Q04DX003 (ip), vehicle: saline
[3] = dose: 200.0 mg/kg/injection, schedule: Q04DX003 (ip), vehicle: saline
[4] = dose: 400.0 mg/kg/injection, schedule: Q04DX003 (ip), vehicle: saline
[5] = dose: 100.0 mg/kg/injection, schedule: Q04DX003 (ip), vehicle: saline with Tween-80
[6] = dose: 200.0 mg/kg/injection, schedule: Q04DX003 (ip), vehicle: saline with Tween-80
[7] = dose: 50.0 mg/kg/injection, schedule: Q01DX001 (ip), vehicle: saline
[8] = dose: 100.0 mg/kg/injection, schedule: Q01DX001 (ip), vehicle: saline
[9] = dose: 200.0 mg/kg/injection, schedule: Q01DX001 (ip), vehicle: saline
[10] = dose: 400.0 mg/kg/injection, schedule: Q01DX001 (ip), vehicle: saline
[11] = dose: 100.0 mg/kg/injection, schedule: Q01DX001 (ip), vehicle: carboxymethylcellulose (CMC)
[12] = dose: 200.0 mg/kg/injection, schedule: Q01DX001 (ip), vehicle: carboxymethylcellulose (CMC)
[13] = dose: 400.0 mg/kg/injection, schedule: Q01DX001 (ip), vehicle: carboxymethylcellulose (CMC)
[14] = dose: 100.0 mg/kg/injection, schedule: Q04DX003 (ip), vehicle: Klucel (hydroxypropylcellulose) (HPC)
[15] = dose: 200.0 mg/kg/injection, schedule: Q04DX003 (ip), vehicle: Klucel (hydroxypropylcellulose) (HPC)
[16] = dose: 400.0 mg/kg/injection, schedule: Q04DX003 (ip), vehicle: Klucel (hydroxypropylcellulose) (HPC)
[17] = dose: 400.0 mg/kg/injection, schedule: Q04DX002 (ip), vehicle: saline with Tween-80
[18] = dose: 75.0 mg/kg/injection, schedule: Q01DX001 (ip), vehicle: saline
[19] = dose: 150.0 mg/kg/injection, schedule: Q01DX001 (ip), vehicle: saline
[20] = dose: 100.0 mg/kg/injection, schedule: Q01DX009 (ip), vehicle: saline with Tween-80
[21] = dose: 200.0 mg/kg/injection, schedule: Q01DX009 (ip), vehicle: saline with Tween-80

## CC(C)NC1C2CCC(CC2)C1(O)c1ccc(Cl)c(Cl)c1 (stereo unspecified)
[1]
  T/C: 101 % of control
dose: 25.0 mg/kg/injection, schedule: Q04DX003 (ip), vehicle: saline
  T/C: 95 % of control
dose: 50.0 mg/kg/injection, schedule: Q01DX009 (ip), vehicle: saline
  T/C: 95 % of control
dose: 50.0 mg/kg/injection, schedule: Q04DX003 (ip), vehicle: saline
  T/C: 97 % of control
dose: 100.0 mg/kg/injection, schedule: Q01DX009 (ip), vehicle: saline
  T/C: 100 % of control
[2]
  T/C: 92 % of control
dose: 200.0 mg/kg/injection, schedule: Q01DX009 (ip), vehicle: saline
  T/C: 95 % of control
[3]
  T/C: 101 % of control
dose: 400.0 mg/kg/injection, schedule: Q01DX009 (ip), vehicle: saline
  T/C: 92 % of control
[4]
  T/C: 92 % of control

## COC(=O)/C(C#N)=C\c1ccccc1
[5]
  T/C: 95 % of control
[6]
  T/C: 101 % of control

## NCC(=O)NC(Cc1ccccc1)C(=O)O (stereo unspecified) (H-Gly-[ξF]-OH)
[7]
  T/C: 110 % of control
[8]
  T/C: 96 % of control
[9]
  T/C: 112 % of control
[10]
  T/C: 107 % of control

## C=CCC(CC=C)(C(N)=O)c1ccc(OC)cc1
[11]
  T/C: 100 % of control
[12]
  T/C: 97 % of control
[13]
  T/C: 111 % of control

## [CH3][Sb]1([CH3])([I])[CH2]CC[CH2]1
[2]
  T/C: 101 % of control
[3]
  T/C: 97 % of control
[4]
  T/C: 101 % of control

## Oc1ccc(C(c2ccc(O)c(Cl)c2)c2ccccn2)cc1Cl
[14]
  T/C: 102 % of control
[15]
  T/C: 98 % of control
[16]
  T/C: 100 % of control

## Fc1cc(F)c(F)c(Nc2ccccc2)c1F
dose: 25.6 mg/kg/injection, schedule: Q04DX002 (ip), vehicle: saline with Tween-80
  T/C: 113 % of control
dose: 64.0 mg/kg/injection, schedule: Q04DX002 (ip), vehicle: saline with Tween-80
  T/C: 89 % of control
dose: 160.0 mg/kg/injection, schedule: Q04DX002 (ip), vehicle: saline with Tween-80
  T/C: 95 % of control
[17]
  T/C: 106 % of control

## COC(CN(C)Cc1ccccc1)OC
[18]
  T/C: 107 % of control
[19]
  T/C: 104 % of control
dose: 300.0 mg/kg/injection, schedule: Q01DX001 (ip), vehicle: saline
  T/C: 102 % of control

## O=[N+]([O-])c1ccc(/C=C/C2OCCO2)cc1
[7]
  T/C: 98 % of control
[8]
  T/C: 96 % of control
[9]
  T/C: 101 % of control

## N=c1c2ncn(C3OC(CO)C(O)C3O)c2ncn1O (stereo unspecified)
[7]
  T/C: 101 % of control
[18]
  T/C: 111 % of control
[8]
  T/C: 103 % of control
[19]
  T/C: 105 % of control

## NC(=O)N1Cc2ccccc2CCc2ccccc2C1
[14]
  T/C: 98 % of control
[16]
  T/C: 91 % of control

## CCC(CC)(CC#N)C1CCCCC1
dose: 50.0 mg/kg/injection, schedule: Q01DX001 (ip), vehicle: carboxymethylcellulose (CMC)
  T/C: 98 % of control
[11]
  T/C: 104 % of control
[12]
  T/C: 98 % of control
[13]
  T/C: 104 % of control

## COc1ccc(C23OC2Oc2cc(OC4CCCCO4)ccc2C3O)cc1 (stereo unspecified)
dose: 50.0 mg/kg/injection, schedule: Q01DX001 (sc), vehicle: steriod suspending solution
  T/C: 101 % of control
dose: 100.0 mg/kg/injection, schedule: Q01DX001 (sc), vehicle: steriod suspending solution
  T/C: 101 % of control
dose: 200.0 mg/kg/injection, schedule: Q01DX001 (sc), vehicle: steriod suspending solution
  T/C: 101 % of control
dose: 400.0 mg/kg/injection, schedule: Q01DX001 (sc), vehicle: steriod suspending solution
  T/C: 95 % of control

## Cc1cccc(C(=O)C(O)(c2ccccc2)C2CCCCC2=O)c1 (stereo unspecified)
dose: 100.0 mg/kg/injection, schedule: Q04DX002 (ip), vehicle: Klucel (hydroxypropylcellulose) (HPC)
  T/C: 100 % of control
dose: 200.0 mg/kg/injection, schedule: Q04DX002 (ip), vehicle: Klucel (hydroxypropylcellulose) (HPC)
  T/C: 92 % of control
dose: 400.0 mg/kg/injection, schedule: Q04DX002 (ip), vehicle: Klucel (hydroxypropylcellulose) (HPC)
  T/C: 114 % of control

## CC(=O)Nc1ccc(NC(=O)c2cccc(F)c2)cc1
dose: 100.0 mg/kg/injection, schedule: Q01DX009 (ip), vehicle: Klucel (hydroxypropylcellulose) (HPC)
  T/C: 86 % of control
dose: 200.0 mg/kg/injection, schedule: Q01DX009 (ip), vehicle: Klucel (hydroxypropylcellulose) (HPC)
  T/C: 102 % of control
dose: 400.0 mg/kg/injection, schedule: Q01DX009 (ip), vehicle: Klucel (hydroxypropylcellulose) (HPC)
  T/C: 91 % of control

## NNc1n[nH]c(=O)[nH]c1=O
[8]
  T/C: 102 % of control
[9]
  T/C: 96 % of control
[10]
  T/C: 96 % of control

## O=C(O)C1(C(=O)O)CC(c2ccccc2)C1
dose: 75.0 mg/kg/injection, schedule: Q04DX003 (ip), vehicle: saline with Tween-80
  T/C: 101 % of control
dose: 150.0 mg/kg/injection, schedule: Q01DX009 (ip), vehicle: saline with Tween-80
  T/C: 91 % of control
dose: 150.0 mg/kg/injection, schedule: Q04DX003 (ip), vehicle: saline with Tween-80
  T/C: 95 % of control
dose: 300.0 mg/kg/injection, schedule: Q01DX009 (ip), vehicle: saline with Tween-80
  T/C: 91 % of control
dose: 300.0 mg/kg/injection, schedule: Q04DX003 (ip), vehicle: saline with Tween-80
  T/C: 101 % of control

## CSc1ccc(NC(=O)NS(=O)(=O)c2ccc(C)cc2)cc1
[20]
  T/C: 88 % of control and 91 % of control
dose: 100.0 mg/kg/injection, schedule: Q04DX002 (ip), vehicle: saline with Tween-80
  T/C: 96 % of control
[5]
  T/C: 95 % of control
[21]
  T/C: 97 % of control and 91 % of control
dose: 200.0 mg/kg/injection, schedule: Q04DX002 (ip), vehicle: saline with Tween-80
  T/C: 89 % of control
[6]
  T/C: 89 % of control
dose: 400.0 mg/kg/injection, schedule: Q01DX009 (ip), vehicle: saline with Tween-80
  T/C: 87 % of control
[17]
  T/C: 100 % of control and 86 % of control
dose: 400.0 mg/kg/injection, schedule: Q04DX003 (ip), vehicle: saline with Tween-80
  T/C: 90 % of control

## CCCOP(=O)(N1CC1(C)C)N1CC1(C)C (stereo unspecified)
dose: 100.0 mg/kg/injection, schedule: Q04DX002 (ip), vehicle: saline
  T/C: 201 % of control
dose: 200.0 mg/kg/injection, schedule: Q04DX002 (ip), vehicle: saline
  T/C: 155 % of control

## O=C(C=C(C(F)(F)F)C(F)(F)F)c1cccc(Cl)c1
dose: 6.25 mg/kg/injection, schedule: Q01DX009 (ip), vehicle: saline
  T/C: 100 % of control
dose: 6.25 mg/kg/injection, schedule: Q04DX003 (ip), vehicle: saline with Tween-80
  T/C: 96 % of control
dose: 12.5 mg/kg/injection, schedule: Q01DX009 (ip), vehicle: saline
  T/C: 100 % of control
dose: 12.5 mg/kg/injection, schedule: Q04DX003 (ip), vehicle: saline with Tween-80
  T/C: 107 % of control
[1]
  T/C: 97 % of control
dose: 25.0 mg/kg/injection, schedule: Q04DX003 (ip), vehicle: saline with Tween-80
  T/C: 100 % of control
dose: 50.0 mg/kg/injection, schedule: Q04DX003 (ip), vehicle: saline with Tween-80
  T/C: 100 % of control

## CN(C)N=Nc1c(Br)cc(Br)cc1Br
dose: 50.0 mg/kg/injection, schedule: Q01DX009 (ip), vehicle: saline with Tween-80
  T/C: 87 % of control
[20]
  T/C: 102 % of control
[21]
  T/C: 105 % of control

## Nc1nccc2snnc12
dose: 100.0 mg/kg/injection, schedule: Q01DX001 (ip), vehicle: Klucel (hydroxypropylcellulose) (HPC)
  T/C: 91 % of control
[14]
  T/C: 94 % of control
dose: 200.0 mg/kg/injection, schedule: Q01DX001 (ip), vehicle: Klucel (hydroxypropylcellulose) (HPC)
  T/C: 89 % of control
[15]
  T/C: 104 % of control
dose: 400.0 mg/kg/injection, schedule: Q01DX001 (ip), vehicle: Klucel (hydroxypropylcellulose) (HPC)
  T/C: 97 % of control
[16]
  T/C: 100 % of control

## O=c1cccc(CCc2ccccc2)[nH]1
[8]
  T/C: 100 % of control
[9]
  T/C: 95 % of control
[10]
  T/C: 105 % of control

## CC1=CC=CC(C)(Cc2ccc(-c3ccc(CC4(C)C=CC=C(C)C4=O)cc3)cc2)C1=O (stereo unspecified)
dose: 100.0 mg/kg/injection, schedule: Q01DX001 (ip), vehicle: saline sonified
  T/C: 92 % of control
dose: 200.0 mg/kg/injection, schedule: Q01DX001 (ip), vehicle: saline sonified
  T/C: 90 % of control
dose: 400.0 mg/kg/injection, schedule: Q01DX001 (ip), vehicle: saline sonified
  T/C: 95 % of control
